The record followed here is patent publication US5006448A, “Photographic material and process” (Eastman Kodak Company, priority 1989, dated 1991).

A short description of this assay: Imbibition test of intrinsic inhibition strength of free inhibitors. Particulars: inhibitor prebath 5×10^-5 M, pH 10 carbonate buffer plus 0.1% dimethylformamide, 38° C., 2 min. From the text:
Development inhibitors are generally released imagewise from an incorporated DIR compound during processing of the exposed photographic element. To evaluate the intrinsic inhibition strength of such inhibitors, independent of DIR release, an imbibition test is used. This involves imbibing an exposed film strip with a solution containing a given concentration of the free inhibitor to be tested. Nitrogen burst agitation of the imbibing solution improves the repeatability and effectiveness of inhibitor incorporation. The measured strength obtained by this test serves as an important guide in selecting inhibitors for desired photographic acutance improvements.
Film samples for imbibition testing of inhibitors were prepared having the following schematic layer structure and using a silver bromoiodide emulsion containing 6.4 mole % iodide (numerical values denote coating coverages in mg/m^2 and the silver halide values are for equivalent weights of silver):
Film strips cut from this coated element were exposed through a graduated density test object and a Kodak Wratten 99 (green) filter. Before development a strip was immersed at 38° C. under nitrogen agitation in each of the separate prebaths containing a test inhibitor at 5×10^-5 M concentration in a pH 10 carbonate buffer plus 0.1% dimethylformamide. As controls, each test set included a check strip which was immersed in a prebath containing no inhibitor and strips immersed in prebaths containing the comparison inhibitors phenylmercaptotetrazole (CI-1) and ethylmercaptotetrazole (CI-2). Photographic processing was carried out at 38° C. in the following steps:
The density of each test strip at this same exposure was noted and the inhibition strength number (I.S. No.) calculated using the equation: [formula]
Larger I.S. numbers for given inhibitors indicate stronger inhibition resulting in less dye density formed. Table IV lists these […], as well as calculated log P values, for a number of inhibitors released by compounds of the invention and for comparison inhibitors CI-1 through CI-8. It can be seen that, at equivalent partition coefficient (Log P) values, the inhibitors useful in the invention show higher inhibition strength than the controls. Alternatively, at approximately equal inhibition strength, inhibitors of the invention have lower partition coefficients.

The structures appear in SMILES notation.

Turning to `Sc1nnnn1-c1ccccc1` [CI-1, phenylmercaptotetrazole, reference compound], the “Inhibition Strength No.” value came out at 80.

As for `CCn1nnnc1S` [CI-2, reference compound], the “Inhibition Strength No.” value was found to be 15.

With `CCCCCCCCc1nn[nH]n1` [CI-3, reference compound], the “Inhibition Strength No.” value worked out at 18.

`CCCCCCCCCSc1nn[nH]n1` [CI-4, reference compound]: the “Inhibition Strength No.” value is listed as 43.

For `CCCCCCN(CCCCCC)c1nn[nH]n1` [CI-5, reference compound], the “Inhibition Strength No.” value is recorded as 52.

Regarding `CCCCCOc1ccc(-c2nn[nH]n2)cc1` [CI-6, reference compound], the “Inhibition Strength No.” value is listed as 16.

Take `O=C(Oc1ccccc1)c1ccc2[nH]nnc2c1` [CI-7, reference compound]: the “Inhibition Strength No.” value came to 40.

Turning to `CCOc1cc2nn[nH]c2cc1OCC` [CI-8, reference compound], the “Inhibition Strength No.” value is listed as 35.

Turning to `CCCCCCCCCSCc1nn[nH]n1` [Compound I-5], the “Inhibition Strength No.” value is given as 95.

For `CCCCCCCCSCCc1nn[nH]n1` [Compound I-21], the “Inhibition Strength No.” value was 95.

Turning to `CCCCCCCSCCCc1nn[nH]n1` [Compound I-22], the “Inhibition Strength No.” value is recorded as 94.

Take `CCCCCCSCCCc1nn[nH]n1` [Compound I-23]: the “Inhibition Strength No.” value turned out to be 77.

As to `CCCSCCCc1nn[nH]n1` [Compound I-24], the “Inhibition Strength No.” value came to 20.

As for `CCCCSCCCOc1ccc(-c2nn[nH]n2)cc1` [Compound I-26], the “Inhibition Strength No.” value is 67.

As to `CCCCSCCN(CCSCCCC)c1nn[nH]n1` [Compound I-37], the “Inhibition Strength No.” value stood at 66.

In the case of `CCCCSCCCCCCc1nn[nH]n1` [Compound I-51], the “Inhibition Strength No.” value is given as 83.

Consider `CCSCCSCCCc1nn[nH]n1` [Compound I-134], for which the “Inhibition Strength No.” value stood at 77.

For `CCCSCCSCc1ccccc1-c1nn[nH]n1` [Compound I-136], the “Inhibition Strength No.” value is 84.

For `CCCSCCOC(=O)c1ccc2[nH]nnc2c1` [Compound I-137], the “Inhibition Strength No.” value was 86.

Take `CCCSc1ccc2[nH]nnc2c1` [Compound I-138]: the “Inhibition Strength No.” value is 69.

Turning to `CSCCSc1ccc2[nH]nnc2c1` [Compound I-139, 6'-(2-methylthioethylthio)benzotriazole], the “Inhibition Strength No.” value was 88.
